Each compound was assayed against T1, N-terminally GST-tagged DLK (catalytic domain amino acid 1-520) (Homo sapiens, UniProt Q12852) (assay: DLK TR-FRET inhibition assay). Conditions: 5 nM GST-DLK, 40 nM HIS-MKK4 K131M substrate, 30 μM ATP, 60 minutes at ambient temperature.
T1 construct: N-terminally GST-tagged DLK (catalytic domain amino acid 1-520); purchased Carna Bioscience
T1 sequence (Q12852 1-520): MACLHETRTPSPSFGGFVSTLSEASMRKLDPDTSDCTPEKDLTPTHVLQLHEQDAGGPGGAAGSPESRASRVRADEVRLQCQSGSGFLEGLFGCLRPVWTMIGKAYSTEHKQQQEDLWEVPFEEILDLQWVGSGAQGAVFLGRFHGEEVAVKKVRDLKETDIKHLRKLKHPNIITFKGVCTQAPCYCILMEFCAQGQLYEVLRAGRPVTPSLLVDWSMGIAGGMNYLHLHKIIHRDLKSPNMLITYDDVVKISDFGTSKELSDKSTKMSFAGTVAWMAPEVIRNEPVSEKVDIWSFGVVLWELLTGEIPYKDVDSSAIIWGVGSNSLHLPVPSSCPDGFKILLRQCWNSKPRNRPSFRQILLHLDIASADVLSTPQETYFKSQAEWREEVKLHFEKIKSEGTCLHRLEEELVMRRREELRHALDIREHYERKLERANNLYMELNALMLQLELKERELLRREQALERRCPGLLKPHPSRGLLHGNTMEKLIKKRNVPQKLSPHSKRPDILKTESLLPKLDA
Format: biochemical
Protocol: DLK TR-FRET inhibition assay: DLK kinase reactions (20 μL) containing 5 nM N-terminally GST-tagged DLK (catalytic domain amino acid 1-520) (Carna Bioscience), 40 nM N-terminally HIS-tagged MKK4 K131M substrate, and 30 μM ATP in kinase reaction buffer (50 mM HEPES, pH 7.5, 0.01% Triton X-100, 0.01% Bovine γ-Globulins, 2 mM DTT, 10 mM MgCl2 and 1 mM EGTA), and testing compound 1:3 serial diluted starting at 20 uM were incubated at ambient temperature for 60 minutes in 384 well OptiPlate (Perkin Elmer). To quench kinase reactions and detect phosphorylated MKK4, 15 μL of TR-FRET antibody mixture containing 2 nM anti-phosphorylated MKK4 labeled with Europium cryptate (Cisbio) and 23 nM anti-HIS labeled with D2 (Cisbio) in detection buffer (25 mM Tris pH 7.5, 100 mM NaCl, 100 mM EDTA, 0.01% Tween-20, and 200 mM KF) was added to the reaction mixture. The detection mixture was incubated for 3 hours at ambient temperature and the TR-FRET was detected with an EnVision multilabel plate reader (Perkin-Elmer) using the LANCE/DELFIA Dual Enh label from Perkin-Elmer (excitation filter: UV2 (TRF) 320 and emission filters: APC 665 and Europium 615).

Structure (SMILES)	Ki
CC(C)n1nc(-c2cnc(N)c(OC(F)F)c2)cc1[C@H]1[C@@H]2C[C@@H](N3C[C@@H]4C[C@H]3CN4C)C[C@@H]21 [compound 206, 3-(difluoromethoxy)-5-(1-isopropyl-5-((1R,3s,5S,6S)-3-((1S,4S)-5-methyl-2,5-diazabicyclo [2.2.1]heptan-2-yl)bicyclo[3.1.0]hexan-6-yl)-1H-pyrazol-3-yl) pyridin-2-amine]	2.1 nM
CC(C)n1nc(-c2cnc(N)c(OC(F)F)c2)cc1[C@H]1[C@@H]2C[C@@H](N3CCN4CCCC4C3)C[C@@H]21 (single isomer, unassigned) [compound 258]	0.9 nM
Nc1ncc(-c2cc([C@H]3[C@@H]4CC(O)C[C@@H]43)n(CC(F)F)n2)cc1OC(F)(F)F (stereo partly drawn) [compound 94, (1R,5S,6r)-6-(3-(6-amino-5-(trifluoromethoxy)pyridin-3-yl)-1-(2,2-difluoroethyl)-1H-pyrazol-5-yl)bicyclo[3.1.0]hexan-3-ol]	1.45 nM
CC(C)n1nc(-c2cnc(N)c(OC(F)F)c2)cc1[C@H]1[C@@H]2C[C@H](N3CCOC[C@H]3C)C[C@@H]21 [compound 81, 3-(difluoromethoxy)-5-(1-isopropyl-5-((1R,3r,5S,6R)-3-((R)-3-methylmorpholino)bicyclo[3.1.0]hexan-6-yl)-1H-pyrazol-3-yl) pyridin-2-amine]	1.43 nM
CC(C)n1nc(-c2cnc(N)c(OC(F)(F)F)c2)cc1[C@@H]1[C@@H]2C[C@H](N3CCOCC3)C[C@@H]21 [compound 125, 5-(1-isopropyl-5-((1R,3r,5S,6s)-3-morpholinobicyclo[3.1.0]hexan-6-yl)-1H-pyrazol-3-yl)-3-(trifluoro-methoxy)pyridin-2-amine]	> 1600 nM
CC(C)n1nc(-c2cnc(N)c(OC(F)F)c2)cc1[C@H]1[C@@H]2C[C@H](N3CCCN(C)CC3)C[C@@H]21 [compound 208, 3-(difluoromethoxy)-5-(1-isopropyl-5-((1R,3r,5S,6r)-3-(4-methyl-1,4-diazepan-1-yl)bicyclo[3.1.0]hexan-6-yl)-1H-pyrazol-3-yl) pyridin-2-amine]	1.5 nM
COC1CN([C@H]2C[C@@H]3[C@H](C2)[C@H]3c2cc(-c3cnc(N)c(OC(F)F)c3)nn2CC2CC2)C1 [compound 154, 5-(1-(cyclopropylmethyl)-5-((1R,3r,5S,6r)-3-(3-methoxyazetidin-1-yl)bicyclo[3.1.0]hexan-6-yl)-1H-pyrazol-3-yl)-3-(difluoromethoxy)pyridin-2-amine]	0.7 nM
CC(C)n1nc(-c2cnc3ccn([C@H](C)c4ccccn4)c3c2)cc1[C@H]1[C@@H]2C[C@@H](N3CCOCC3)C[C@@H]21 [compound 25, 4-((1R,3S,5S,6r)-6-(1-isopropyl-3-(1-((R)-1-(pyridin-2-yl)ethyl)-1H-pyrrolo[3,2-b]pyridin-6-yl)-1H-pyrazol-5-yl)bicyclo[3.1.0]hexan-3-yl)morpholine]	70.6 nM
CC(C)n1nc(-c2cnc(N)c(C(F)(F)F)c2)cc1[C@H]1[C@@H]2C[C@@H](N3CCO[C@@H](C)C3)C[C@@H]21 [compound 112, 5-(1-isopropyl-5-((1R,3s,5S,6S)-3-((S)-2-methylmorpholino)bicyclo[3.1.0]hexan-6-yl)-1H-pyrazol-3-yl)-3-(trifluoromethyl) pyridin-2-amine]	5.87 nM

The remaining lines, values ahead:

Ki	Structure (SMILES)
> 321 nM	CC(C)n1nc(-c2cnc(N)c(C(F)(F)F)c2)cc1[C@@H]1[C@@H]2C[C@@H](O)C[C@@H]21 [compound 122, (1R,3s,5S,6s)-6-(3-(6-amino-5-(trifluoromethyl)pyridin-3-yl)-1-isopropyl-1H-pyrazol-5-yl) bicyclo[3.1.0]hexan-3-ol]
8.2 nM	CC(C)n1nc(-c2cnc(N)c(C(F)(F)F)c2)cc1[C@H]1[C@@H]2C[C@@H](N3CCCC3=O)C[C@@H]21 [compound 44, 1-((1R,3s,5S,6r)-6-(3-(6-amino-5-(trifluoromethyl)pyridin-3-yl)-1-isopropyl-1H-pyrazol-5-yl)bicyclo[3.1.0]hexan-3-yl)pyrrolidin-2-one]
6.68 nM	CC(C)n1nc(-c2cnc(N)c(OC(F)F)c2)cc1[C@H]1[C@@H]2C[C@@H](NCC(F)(F)F)C[C@@H]21 [compound 121, 3-(difluoromethoxy)-5-(1-isopropyl-5-((1R,3s,5S,6r)-3-((2,2,2-trifluoroethyl)amino)bicyclo [3.1.0]hexan-6-yl)-1H-pyrazol-3-yl) pyridin-2-amine]
4.3 nM	CC(C)n1nc(-c2cnc(N)c(C(F)(F)F)c2)cc1[C@H]1[C@@H]2C[C@H](N3CCN(C)C4(COC4)C3)C[C@@H]21 [compound 179, 5-(1-isopropyl-5-((1R,3r,5S,6r)-3-(5-methyl-2-oxa-5,8-diazaspiro [3.5]nonan-8-yl)bicyclo[3.1.0]hexan-6-yl)-1H-pyrazol-3-yl)-3-(trifluoromethyl)pyridin-2-amine]
3.4 nM	CC(C)n1nc(-c2cnc(N)c(OC(F)F)c2)cc1[C@H]1[C@@H]2C[C@H](OC3COC3)C[C@@H]21 [compound 230, 3-(difluoromethoxy)-5-(1-iso-oprpyl-5-((1R,3r,5S,6r)-3-(oxetan-3-yloxy)bicyclo[3.1.0]hexan-6-yl)-1H-pyrazol-3-yl)pyridin-2-amine]
> 321 nM	CC(C)n1nc(-c2cnc(N)c(C(=O)N3CCCC3)c2)cc1[C@H]1[C@@H]2C[C@H](N3CC(F)C3)C[C@@H]21 [compound 107, (2-amino-5-(5-((1R,3r,5S,6r)-3-(3-fluoroazetidin-1-yl)bicyclo [3.1.0]hexan-6-yl)-1-isopropyl-1H-pyrazol-3-yl)pyridin-3-yl) (pyrrolidin-1-yl)methanone]
1.1 nM	CC(C)n1nc(-c2cnc(N)c(OC(F)F)c2)cc1[C@H]1[C@@H]2C[C@@H](N3CCOC[C@@H]3C)C[C@@H]21 [compound 79, 3-(difluoromethoxy)-5-(1-isopropyl-5-((1R,3s,5S,6S)-3-((S)-3-methylmorpholino)bicyclo[3.1.0]hexan-6-yl)-1H-pyrazol-3-yl) pyridin-2-amine]
3.1 nM	CC(C)n1nc(-c2cnc(N)c(OC(F)F)c2)cc1[C@H]1[C@@H]2C[C@@H](N3C4COCC3C4)C[C@@H]21 [compound 157, 5-(5-((1R,3s,5S,6r)-3-(3-oxa-6-azabicyclo[3.1.1]heptan-6-yl)bicyclo[3.1.0]hexan-6-yl)-1-isopropyl-1H-pyrazol-3-yl)-3-(difluoro-methoxy)pyridin-2-amine]
4.2 nM	CC(C)n1nc(-c2cnc(N)c(OC(F)F)c2)cc1[C@H]1[C@@H]2C[C@H](N3CC4(CCCO4)C3)C[C@@H]21 [compound 225, 5-(5-((1R,3r,5S,6r)-3-(5-oxa-2-azaspiro[3.4]octan-2-yl)bicyclo [3.1.0]hexan-6-yl)-1-isopropyl-1H-pyrazol-3-yl)-3-(difluoro-methoxy)pyridin-2-amine]
3.58 nM	CCN1CCN([C@@H]2C[C@@H]3[C@H](C2)[C@H]3c2cc(-c3cnc(N)c(OC(F)(F)F)c3)nn2C(C)C)CC1 [compound 15, 5-(5-((1R,3s,5S,6r)-3-(4-ethylpiperazin-1-yl)bicyclo[3.1.0]hexan-6-yl)-1-isopropyl-1H-pyrazol-3-yl)-3-(trifluoromethoxy) pyridin-2-amine]
